We go through 25 compounds from US10450270B2, “Glyoxamide substituted pyrrolamide derivatives and the use thereof as medicaments for the treatment of hepatitis B” (Janssen Sciences Ireland UC, priority 2013, dated 2019).

Molecules are shown by their SMILES. A value given as a limit tells only on which side of the number the result lay.

Series [1] concerns HBV. The experiment in a line: Anti-HBV activity, HepG2.117 inducible HBV producing cell line (Tet-off), intracellular HBV DNA by realtime PCR. The following applies: Hepatitis B virus. The class given is cell-based.
Series [2] deals with HBV. Description: Anti-HBV activity, HepG2.2.15 stable transfected cell line, HBV DNA from secreted virions by realtime PCR. The class given is cell-based. The conditions noted are these: Hepatitis B virus.
A short description of series [3]: Cytotoxicity in HepG2 cells, Resazurin viability assay. The following applies: human. A general note: Alamar Blue is a resazurin reagent that responds to reducing activity.
Setting [4] is: HepG2.117, 72 h, read-out: HepG2 117 EC50 (μM).
The mark [5] stands for this setting: HepG2.2.15, 144 h, read-out: HepG 2.2.15 EC50 (μM).
Where [6] appears, read: 72 h, HepG2.117 cells, 3 days of treatment, intracellular HBV DNA, read-out: HepG2 117 EC50.
The mark [7] stands for this setting: 144 h, HepG2.2.15 cells, 6 days of treatment, HBV DNA from secreted virions, read-out: HepG 2.2.15 EC50.

Usually EC50 stands for the concentration that produces a half-maximal response. A word on the CC50: it is the concentration giving 50% cytotoxicity. Low values mean harm at low concentration, high ones better tolerance by the cells. With `Cc1cc(NC(=O)c2cc(C(=O)C(=O)NC(C)C)cn2C)ccc1F` [Compound 2, N-(4-fluoro-3-methylphenyl)-4-(2-(isopropylamino)-2-oxoacetyl)-1-methyl-1H-pyrrole-2-carboxamide], the EC50 is 0.75 µM in the series on HBV [1] (setting [4]) and 0.029 µM in the series on HBV [2] (setting [5]). The compound also had a CC50 at 4 days in series [3] (HepG2 cells) above 25 µM.
For `Cc1cc(NC(=O)c2cc(C(=O)C(=O)NC(C)(C)C)cn2C)ccc1F` [Compound 3, 4-(2-(tert-butylamino)-2-oxoacetyl)-N-(4-fluoro-3-methylphenyl)-1-methyl-1H-pyrrole-2-carboxamide], the values for the EC50 in the series on HBV [1] (setting [6]) and with HBV [2] (setting [7]) were 0.04 µM and 0.015 µM, respectively. The compound further returned a CC50 at 4 days in series [3] (HepG2 cells) above 25 µM.
For `Cc1cc(NC(=O)c2cc(C(=O)C(=O)NC(C)(C)C(N)=O)cn2C)ccc1F` [Compound 8, 4-{[(2-Amino-1,1-dimethyl-2-oxoethyl)amino](oxo)acetyl}-N-(4-fluoro-3-methylphenyl)-1-methyl-1H-pyrrole-2-carboxamide], the EC50 amounted to 0.038 µM in the series on HBV [1] (setting [6]) and 0.052 µM in the series on HBV [2] (setting [7]). In addition, the CC50 at 4 days in series [3] (HepG2 cells) is above 25 µM.
Regarding `Cc1cc(NC(=O)c2cc(C(=O)C(=O)N[C@H](C)CC#N)cn2C)ccc1F` [Compound 9, 4-[{[(1R)-2-Cyano-1-methylethyl]amino}(oxo)acetyl]-N-(4-fluoro-3-methyl-phenyl)-1-methyl-1H-pyrrole-2-carboxamide], the EC50 came to 0.2 µM with HBV [1] (setting [6]) and 0.17 µM in the series on HBV [2] (setting [7]). Further, the CC50 at 4 days in series [3] (HepG2 cells) was above 25 µM.
Take `Cn1cc(C(=O)C(=O)NC(C)(C)C)cc1C(=O)Nc1cccc(C(F)(F)F)c1` [Compound 12, 4-(2-(tert-butylamino)-2-oxoacetyl)-1-methyl-N-(3-(trifluoromethyl)phenyl)-1H-pyrrole-2-carboxamide]: the values for the EC50 with HBV [1] (setting [4]) and in the series on HBV [2] (setting [5]) were 0.74 µM and 0.043 µM, respectively. The compound further gave a CC50 at 4 days in series [3] above 25 µM.
On to `Cc1c(C(=O)C(=O)NC(CCO)C2CC2)cc(C(=O)Nc2ccc(F)c(C#N)c2)n1C` (stereo not shown) [Compound 74, N-(3-cyano-4-fluoro-phenyl)-4-[2-[(1-cyclopropyl-3-hydroxy-propyl)-amino]-2-oxo-acetyl]-1,5-dimethyl-pyrrole-2-carboxamide], for which the EC50 with HBV [1] (setting [6]) amounted to 0.015 µM. The compound further displayed a 50% cytotoxic concentration (CC50) at 4 days in series [3] (HepG2 cells) above 25 µM.
On to `CCCC[C@H](CO)NC(=O)C(=O)c1cc(C(=O)Nc2ccc(F)c(C#N)c2)n(C)c1C` [Compound 75, N-(3-cyano-4-fluoro-phenyl)-4-[2-[[(1R)-1-(hydroxymethyl)pentyl]amino]-2-oxo-acetyl]-1,5-dimethyl-pyrrole-2-carboxamide], for which, in the series with HBV [1] (setting [6]), the EC50 worked out at 0.014 µM. The CC50 at 4 days in series [3] (HepG2 cells) was above 25 µM.
Regarding `CCC(C)(CO)NC(=O)C(=O)c1cc(C(=O)Nc2ccc(F)c(C#N)c2)n(C)c1C` (stereo not shown) [Compound 76, N-(3-cyano-4-fluoro-phenyl)-4-[2-[[1-(hydroxymethyl)-1-methyl-propyl]-amino]-2-oxo-acetyl]-1,5-dimethyl-pyrrole-2-carboxamide], the EC50 with HBV [1] (setting [6]) was 0.013 µM. Also, the CC50 at 4 days in series [3] (HepG2 cells) was above 25 µM.
Take `Cc1c(C(=O)C(=O)NC(C)(CO)C2CC2)cc(C(=O)Nc2ccc(F)c(C#N)c2)n1C` (stereo not shown) [Compound 77, N-(3-cyano-4-fluoro-phenyl)-4-[2-[(1-cyclopropyl-2-hydroxy-1-methyl-ethyl)amino]-2-oxo-acetyl]-1,5-dimethyl-pyrrole-2-carboxamide]: the EC50 in the series on HBV [1] (setting [6]) turned out to be 0.012 µM. The same compound yielded a CC50 at 4 days in series [3] (HepG2 cells) above 25 µM.
The matching figures for `Cc1c(C(=O)C(=O)NC2(C)CCCOC2)cc(C(=O)Nc2ccc(F)c(C#N)c2)n1C` (stereo not shown) [Compound 78, N-(3-cyano-4-fluoro-phenyl)-1,5-dimethyl-4-[2-[(3-methyltetrahydropyran-3-yl)amino]-2-oxo-acetyl]pyrrole-2-carboxamide]: 0.008 µM and above 25 µM.
Taken in the same sequence, the figures for `COCC(C)(C)NC(=O)C(=O)c1cc(C(=O)Nc2ccc(F)c(C#N)c2)n(C)c1C` [Compound 79, N-(3-cyano-4-fluoro-phenyl)-4-[2-[(2-methoxy-1,1-dimethyl-ethyl)amino]-2-oxo-acetyl]-1,5-dimethyl-pyrrole-2-carboxamide] were 0.008 µM and above 25 µM.
As for `COCC(C)(NC(=O)C(=O)c1cc(C(=O)Nc2ccc(F)c(C#N)c2)n(C)c1C)C(F)(F)F` (stereo not shown) [Compound 80, N-(3-cyano-4-fluoro-phenyl)-1,5-dimethyl-4-[2-oxo-2-[[2,2,2-trifluoro-1-(methoxymethyl)-1-methyl-ethyl]amino]acetyl]pyrrole-2-carboxamide], the concentration giving a half-maximal response (EC50) in the series on HBV [1] (setting [6]) was found to be 0.007 µM. In addition, the CC50 at 4 days in series [3] (HepG2 cells) is above 25 µM.
Regarding `Cc1c(C(=O)C(=O)NC(C)(C)CCO)cc(C(=O)Nc2ccc(F)c(C#N)c2)n1C` [Compound 81, N-(3-cyano-4-fluoro-phenyl)-4-[2-[(3-hydroxy-1,1-dimethyl-propyl)amino]-2-oxo-acetyl]-1,5-dimethyl-pyrrole-2-carboxamide], the EC50 in the series with HBV [1] (setting [6]) turned out to be 0.012 µM. The CC50 at 4 days in series [3] (HepG2 cells) is above 25 µM.
On to `Cc1c(C(=O)C(=O)NC2(C(F)(F)F)CCC(O)CC2)cc(C(=O)Nc2ccc(F)c(C#N)c2)n1C` (stereo not shown) [Compound 82, N-(3-cyano-4-fluoro-phenyl)-4-[2-[[4-hydroxy-1-(trifluoromethyl)cyclo-hexyl]amino]-2-oxo-acetyl]-1,5-dimethyl-pyrrole-2-carboxamide], for which the EC50 in the series on HBV [1] (setting [6]) was 0.003 µM. This compound also had a CC50 at 4 days in series [3] (HepG2 cells) above 25 µM.
In the case of `Cn1cc(C(=O)C(=O)NC2(C(F)(F)F)CCOC2)c(F)c1C(=O)Nc1ccc(F)c(C#N)c1` (stereo not shown) [Compound 83, N-(3-cyano-4-fluoro-phenyl)-3-fluoro-1-methyl-4-[2-oxo-2-[[3-(trifluoro-methyl)tetrahydrofuran-3-yl]amino]acetyl]pyrrole-2-carboxamide], the EC50 in the series with HBV [1] (setting [6]) turned out to be 0.006 µM. The compound also came in with a CC50 at 4 days in series [3] (HepG2 cells) of 11.8 µM.
`Cn1cc(C(=O)C(=O)NC2(C(F)(F)F)CCC2)c(F)c1C(=O)Nc1ccc(F)c(C#N)c1` [Compound 84, N-(3-cyano-4-fluoro-phenyl)-3-fluoro-1-methyl-4-[2-oxo-2-[[1-(trifluoro-methyl)cyclobutyl]amino]acetyl]pyrrole-2-carboxamide]: the concentration for a half-maximal effect (EC50) with HBV [1] (setting [6]) is 0.003 µM. The compound also returned a CC50 at 4 days in series [3] (HepG2 cells) of 21.9 µM.
Taken in the same sequence, the figures for `C[C@@H](NC(=O)C(=O)c1cn(C)c(C(=O)Nc2ccc(F)c(C#N)c2)c1F)C(F)(F)F` [Compound 85, N-(3-cyano-4-fluoro-phenyl)-3-fluoro-1-methyl-4-[2-oxo-2-[[(1R)-2,2,2-trifluoro-1-methyl-ethyl]amino]acetyl]pyrrole-2-carboxamide] were 0.014 µM and above 25 µM.
Turning to `C[C@@H](NC(=O)C(=O)c1c(Cl)c(C(=O)Nc2ccc(F)c(C#N)c2)n(C)c1Cl)C(F)(F)F` [Compound 86, 3,5-dichloro-N-(3-cyano-4-fluoro-phenyl)-1-methyl-4-[2-oxo-2-[[(1R)-2,2,2-trifluoro-1-methyl-ethyl]amino]acetyl]pyrrole-2-carboxamide], the EC50 in the series on HBV [1] (setting [6]) was determined as 0.006 µM. Further, the CC50 at 4 days in series [3] (HepG2 cells) is above 25 µM.
`Cn1c(Cl)c(C(=O)C(=O)NC2(C(F)(F)F)CCOC2)c(F)c1C(=O)Nc1ccc(F)c(C#N)c1` (stereo not shown) [Compound 89, 5-chloro-N-(3-cyano-4-fluoro-phenyl)-3-fluoro-1-methyl-4-[2-oxo-2-[[3-(trifluoromethyl)tetrahydrofuran-3-yl]amino]acetyl]pyrrole-2-carboxamide]: the EC50 in the series on HBV [1] (setting [6]) came to 0.008 µM. For the same compound, the CC50 at 4 days in series [3] (HepG2 cells) was above 25 µM.
On to `Cn1c(Cl)c(C(=O)C(=O)NC2(C(F)(F)F)CCC2)c(F)c1C(=O)Nc1ccc(F)c(C#N)c1` [Compound 90, 5-chloro-N-(3-cyano-4-fluoro-phenyl)-3-fluoro-1-methyl-4-[2-oxo-2-[[1-(trifluoromethyl)cyclobutyl]amino]acetyl]pyrrole-2-carboxamide], for which the EC50 in the series with HBV [1] (setting [6]) worked out at 0.032 µM. This compound also returned a CC50 at 4 days in series [3] (HepG2 cells) above 25 µM.
With `C[C@@H](NC(=O)C(=O)c1c(F)c(C(=O)Nc2ccc(F)c(C#N)c2)n(C)c1Cl)C(F)(F)F` [Compound 91, 5-chloro-N-(3-cyano-4-fluoro-phenyl)-3-fluoro-1-methyl-4-[2-oxo-2-[[(1R)-2,2,2-trifluoro-1-methyl-ethyl]amino]acetyl]pyrrole-2-carboxamide], the EC50 in the series with HBV [1] (setting [6]) worked out at 0.3 µM. For the same compound, the CC50 at 4 days in series [3] (HepG2 cells) was above 25 µM.
Consider `C[C@@H](NC(=O)C(=O)c1cn(C)c(C(=O)Nc2ccc(F)c(C#N)c2)c1F)C(C)(F)F` [Compound 93, N-(3-cyano-4-fluoro-phenyl)-4-[2-[[(1R)-2,2-difluoro-1-methylpropyl]-amino]-2-oxo-acetyl]-3-fluoro-1-methyl-pyrrole-2-carboxamide], for which, in the series on HBV [1] (setting [6]), the EC50 came out at 0.015 µM. The CC50 at 4 days in series [3] (HepG2 cells) was above 25 µM.
`Cc1c(C(=O)C(=O)NC(C)(C)CO)cc(C(=O)Nc2ccc(F)c(C#N)c2)n1C` [Compound 94, N-(3-cyano-4-fluoro-phenyl)-4-[2-[(2-hydroxy-1,1-dimethyl-ethyl)amino]-2-oxo-acetyl]-1,5-dimethyl-pyrrole-2-carboxamide]: the concentration for a half-maximal effect (EC50) in the series with HBV [1] (setting [6]) is 0.004 µM. The compound further showed a CC50 at 4 days in series [3] (HepG2 cells) above 25 µM.
In the case of `C[C@H](CO)NC(=O)C(=O)c1cn(C)c(C(=O)Nc2ccc(F)c(C#N)c2)c1F` [Compound 95, N-(3-cyano-4-fluoro-phenyl)-3-fluoro-4-[2-[[(1R)-2-hydroxy-1-methyl-ethyl]amino]-2-oxo-acetyl]-1-methyl-pyrrole-2-carboxamide], the concentration for a half-maximal effect (EC50) with HBV [1] (setting [6]) was found to be 0.065 µM. Also, the CC50 at 4 days in series [3] (HepG2 cells) was above 25 µM.
Regarding `COCC(C)(C)NC(=O)C(=O)c1cn(C)c(C(=O)Nc2ccc(F)c(C#N)c2)c1F` [Compound 96, N-(3-cyano-4-fluoro-phenyl)-3-fluoro-4-[2-[(2-methoxy-1,1-dimethyl-ethyl)amino]-2-oxo-acetyl]-1-methyl-pyrrole-2-carboxamide], the EC50 with HBV [1] (setting [6]) came out at 0.006 µM. The compound further gave a CC50 at 4 days in series [3] (HepG2 cells) above 25 µM.
